Molecular target: Menin-MLL (Homo sapiens (Human), UniProt O00255)
Test: Determination of binding constants (Ki) to Menin-MLL (HTRF)
Conditions: HTRF, 0.25 nM H-FL-Menin, 3.2 nM FITC-MLL-4-43, 24 hr incubation; for Ki: read-out: Menin-MLL Ki HTRF Assay: Ki

Menin-MLL, sequence (O00255 whole entry): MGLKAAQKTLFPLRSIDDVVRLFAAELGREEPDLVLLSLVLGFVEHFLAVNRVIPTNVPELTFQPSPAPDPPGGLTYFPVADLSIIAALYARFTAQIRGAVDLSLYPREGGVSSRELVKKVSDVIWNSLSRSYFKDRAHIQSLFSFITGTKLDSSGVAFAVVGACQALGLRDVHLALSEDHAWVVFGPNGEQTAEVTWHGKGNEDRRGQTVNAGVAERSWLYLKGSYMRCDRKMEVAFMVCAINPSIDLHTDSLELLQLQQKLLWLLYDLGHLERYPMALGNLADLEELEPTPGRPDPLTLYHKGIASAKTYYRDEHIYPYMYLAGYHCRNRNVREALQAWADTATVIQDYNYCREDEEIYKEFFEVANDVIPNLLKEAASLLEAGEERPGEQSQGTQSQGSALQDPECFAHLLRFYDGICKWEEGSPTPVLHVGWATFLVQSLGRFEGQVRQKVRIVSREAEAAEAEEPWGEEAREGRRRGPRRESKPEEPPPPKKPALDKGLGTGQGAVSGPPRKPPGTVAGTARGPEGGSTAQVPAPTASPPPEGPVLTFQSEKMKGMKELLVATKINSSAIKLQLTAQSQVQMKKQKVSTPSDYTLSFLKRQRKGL

SMILES: CCN(C(=O)c1cc(F)ccc1Oc1cnc(C)nc1N1CC2(CCN(C[C@@H]3CC[C@@H](NS(=O)(=O)CC)CO3)CC2)C1)C(C)C [Compound 216, N-Ethyl-2-((4-(7-(((2S,5R)-5-(ethylsulfonamido)tetrahydro-2H-pyran-2-yl)methyl)-2,7-diazaspiro[3.5]nonan-2-yl)-2-methylpyrimidin-5-yl)oxy)-5-fluoro-N-isopropylbenzamide]
- Ki: 1 to 1.5 nM

SMILES: C=CS(=O)(=O)N[C@@H]1CC[C@@H](CN2CCC3(CC2)CN(c2ncncc2Oc2ccc(F)cc2C(=O)N(CC)C(C)C)C3)OC1 [Compound 219, N-Ethyl-5-fluoro-N-isopropyl-2-((4-(7-(((2S,5R)-5-(vinylsulfonamido)tetrahydro-2H-pyran-2-yl)methyl)-2,7-diazaspiro[3.5]nonan-2-yl)pyrimidin-5-yl)oxy)benzamide]
- Ki: < 1 nM

SMILES: CCN(C(=O)c1cc(F)ccc1Oc1cncnc1N1CC2(CCN(C[C@@H]3CC[C@@H](NS(=O)(=O)CCN(C)C)CO3)CC2)C1)C(C)C [Compound 220, 2-((4-(7-(((2S,5R)-5-((2-(Dimethylamino)ethyl)sulfonamido)tetrahydro-2H-pyran-2-yl)methyl)-2,7-diazaspiro[3.5]nonan-2-yl)pyrimidin-5-yl)oxy)-N-ethyl-5-fluoro-N-isopropylbenzamide]
- Ki: 1 to 1.5 nM

SMILES: CC(C)N(C(=O)c1cc(F)ccc1Oc1cncnc1N1CC2(CCN(C[C@@H]3CC[C@@H](NS(=O)(=O)N4CC5(CCO5)C4)CO3)CC2)C1)C(C)C [Compound 221, 2-((4-(7-(((2S,5R)-5-(1-Oxa-6-azaspiro[3.3]heptane-6-sulfonamido)tetrahydro-2H-pyran-2-yl)methyl)-2,7-diazaspiro[3.5]nonan-2-yl)pyrimidin-5-yl)oxy)-5-fluoro-N,N-diisopropylbenzamide]
- Ki: < 1 nM

SMILES: CC(C)N(C(=O)c1cc(F)ccc1Oc1cncnc1N1CC2(CCN(C[C@@H]3CC[C@@H](NS(=O)(=O)N4CC5(COC5)C4)CO3)CC2)C1)C(C)C [Compound 222, 2-((4-(7-(((2S,5R)-5-(2-Oxa-6-azaspiro[3.3]heptane-6-sulfonamido)tetrahydro-2H-pyran-2-yl)methyl)-2,7-diazaspiro[3.5]nonan-2-yl)pyrimidin-5-yl)oxy)-5-fluoro-N,N-diisopropylbenzamide]
- Ki: < 1 nM

SMILES: CN=S(=O)(N[C@@H]1CC[C@@H](CN2CCC3(CC2)CN(c2ncncc2Oc2ccc(F)cc2C(=O)N(C(C)C)C(C)C)C3)OC1)c1ccccc1 (stereo partly drawn) [Compound 232, 5-Fluoro-N,N-diisopropyl-2-((4-(7-(((2S,5R)-5-(N′-methylphenylsulfonoamidimidamido)tetrahydro-2H-pyran-2-yl)methyl)-2,7-diazaspiro[3.5]nonan-2-yl)pyrimidin-5-yl)oxy)benzamide]
- Ki: < 1 nM

SMILES: CC(C)N(C(=O)c1cc(F)ccc1Oc1cncnc1N1CC2(CCN(C[C@@H]3CC[C@@H](NS(=N)(=O)C4CC4)CO3)CC2)C1)C(C)C (stereo partly drawn) [Compound 233, 2-((4-(7-(((2S,5R)-5-(Cyclopropanesulfonoamidimidamido)tetrahydro-2H-pyran-2-yl)methyl)-2,7-diazaspiro[3.5]nonan-2-yl)pyrimidin-5-yl)oxy)-5-fluoro-N,N-diisopropylbenzamide]
- Ki: < 1 nM

SMILES: Cc1ncc(S(=O)(=O)N[C@@H]2CC[C@@H](CN3CCC4(CC3)CN(c3ncncc3Oc3ccc(F)cc3C(=O)N(C(C)C)C(C)C)C4)OC2)[nH]1 [Compound 234, 5-Fluoro-N,N-diisopropyl-2-((4-(7-(((2S,5R)-5-((2-methyl-1H-imidazole)-5-sulfonamido)tetrahydro-2H-pyran-2-yl)methyl)-2,7-diazaspiro[3.5]nonan-2-yl)pyrimidin-5-yl)oxy)benzamide]
- Ki: < 1 nM

SMILES: CC(C)N(CC(F)F)C(=O)c1cc(F)ccc1Oc1cncnc1N1CC2(CCN(C[C@@H]3CC[C@@H](NS(=O)(=O)N4CC(OCc5ccccc5)C4)CO3)CC2)C1 [Compound 236, 2-((4-(7-(((2S,5R)-5-((3-(Benzyloxy)azetidine)-1-sulfonamido)tetrahydro-2H-pyran-2-yl)methyl)-2,7-diazaspiro[3.5]nonan-2-yl)pyrimidin-5-yl)oxy)-N-(2,2-difluoroethyl)-5-fluoro-N-isopropylbenzamide]
- Ki: < 1 nM

SMILES: CC(C)N(CC(F)F)C(=O)c1cc(F)ccc1Oc1cncnc1N1CC2(CCN(C[C@@H]3CC[C@@H](NS(=O)(=O)N4CC(O)C4)CO3)CC2)C1 [Compound 237, N-(2,2-Difluoroethyl)-5-fluoro-2-((4-(7-(((2S,5R)-5-((3-hydroxyazetidine)-1-sulfonamido)tetrahydro-2H-pyran-2-yl)methyl)-2,7-diazaspiro[3.5]nonan-2-yl)pyrimidin-5-yl)oxy)-N-isopropylbenzamide]
- Ki: < 1 nM

SMILES: CC(C)N(CC(F)F)C(=O)c1cc(F)ccc1Oc1cncnc1N1CC2(CCN(C[C@@H]3CC[C@@H](NS(=O)(=O)N(C)CCOCc4ccccc4)CO3)CC2)C1 [Compound 238]
- Ki: < 1 nM

SMILES: CCS(=O)(=O)N[C@@H]1CC[C@@H](CN2CCC3(CC2)CN(c2ncncc2Oc2ccc(F)cc2C(=O)N(CCC(F)F)C(C)C)C3)OC1 [Compound 242, N-(3,3-Difluoropropyl)-2-((4-(7-(((2S,5R)-5-(ethylsulfonamido)tetrahydro-2H-pyran-2-yl)methyl)-2,7-diazaspiro[3.5]nonan-2-yl)pyrimidin-5-yl)oxy)-5-fluoro-N-isopropylbenzamide]
- EC50: < 50 nM
- Ki: < 1 nM

SMILES: CC(C)N(C(=O)c1cc(F)ccc1Oc1cncnc1N1CC2(CCN(C[C@@H]3CC[C@@H](NS(=O)(=O)C4CC4)CO3)CC2)C1)C1COC1 [Compound 247, 2-((4-(7-(((2S,5R)-5-(Cyclopropanesulfonamido)tetrahydro-2H-pyran-2-yl)methyl)-2,7-diazaspiro[3.5]nonan-2-yl)pyrimidin-5-yl)oxy)-5-fluoro-N-isopropyl-N-(oxetan-3-yl)benzamide]
- EC50: < 50 nM
- Ki: < 1 nM

SMILES: CCS(=O)(=O)N[C@@H]1CC[C@@H](CN2CCC3(CC2)CN(c2ncncc2Oc2ccc(F)cc2C(=O)N(C(C)C)C2CCOCC2)C3)OC1 [Compound 250, 2-((4-(7-(((2S,5R)-5-(Ethylsulfonamido)tetrahydro-2H-pyran-2-yl)methyl)-2,7-diazaspiro[3.5]nonan-2-yl)pyrimidin-5-yl)oxy)-5-fluoro-N-isopropyl-N-(tetrahydro-2H-pyran-4-yl)benzamide]
- EC50: < 50 nM

SMILES: CCS(=O)(=O)N[C@@H]1CC[C@@H](CN2CCC3(CC2)CN(c2ncncc2Oc2ccc(F)cc2C(=O)N(C(C)C)[C@@H]2C[C@@H]4CC[C@H]2O4)C3)OC1 [Compound 251, N-((lR,2R,4S)-7-Oxabicyclo[2.2.1]heptan-2-yl)-2-((4-(7-(((2S,5R)-5-(ethylsulfonamido)tetrahydro-2H-pyran-2-yl)methyl)-2,7-diazaspiro[3.5]nonan-2-yl)pyrimidin-5-yl)oxy)-5-fluoro-N-isopropylbenzamide]
- Ki: < 1 nM

SMILES: CCS(=O)(=O)N[C@@H]1CC[C@@H](CN2CCC3(CC2)CN(c2ncncc2Oc2ccc(F)cc2C(=O)N(C(C)C)C2CC4(COC4)C2)C3)OC1 [Compound 252, 2-((4-(7-(((2S,5R)-5-(Ethylsulfonamido)tetrahydro-2H-pyran-2-yl)methyl)-2,7-diazaspiro[3.5]nonan-2-yl)pyrimidin-5-yl)oxy)-5-fluoro-N-isopropyl-N-(2-oxaspiro[3.3]heptan-6-yl)benzamide]
- Ki: < 1 nM

SMILES: CCS(=O)(=O)N[C@@H]1CC[C@@H](CN2CCC3(CC2)CN(c2ncncc2Oc2ccc(F)cc2C(=O)N(C(C)C)[C@H]2[C@@H]4COC[C@@H]42)C3)OC1 [Compound 253, N-((1R,5S,6r)-3-c)-2-((4-(7-(((2S,5R)-5-(ethylsulfonamido)tetrahydro-2H-pyran-2-yl)methyl)-2,7-diazaspiro[3.5]nonan-2-yl)pyrimidin-5-yl)oxy)-5-fluoro-N-isopropylbenzamide]
- Ki: < 1 nM

SMILES: COCCN(C(=O)c1cc(F)ccc1Oc1cncnc1N1CC2(CCN(C[C@@H]3CC[C@@H](NS(=O)(=O)c4ccccc4)CO3)CC2)C1)C(C)C [Compound 254, 5-Fluoro-N-isopropyl-N-(2-methoxyethyl)-2-((4-(7-(((2S,5R)-5-(phenylsulfonamido)tetrahydro-2H-pyran-2-yl)methyl)-2,7-diazaspiro[3.5]nonan-2-yl)pyrimidin-5-yl)oxy)benzamide]
- EC50: < 50 nM
- Ki: < 1 nM

SMILES: CCS(=O)(=O)N[C@@H]1CC[C@@H](CN2CCC3(CC2)CN(c2ncncc2Oc2ccc(F)cc2C(=O)N(C[C@@H](O)CO)C(C)C)C3)OC1 [Compound 255, N-((R)-2,3-Dihydroxypropyl)-2-((4-(7-(((2S,5R)-5-(ethylsulfonamido)tetrahydro-2H-pyran-2-yl)methyl)-2,7-diazaspiro[3.5]nonan-2-yl)pyrimidin-5-yl)oxy)-5-fluoro-N-isopropylbenzamide]
- EC50: < 50 nM
- Ki: < 1 nM

SMILES: CCS(=O)(=O)N[C@@H]1CC[C@@H](CN2CCC3(CC2)CN(c2ncncc2Oc2ccc(F)cc2C(=O)N(C(C)C)[C@H]2C[C@H](O)C2)C3)OC1 [Compound 259, 2-((4-(7-(((2S,5R)-5-(Ethylsulfonamido)tetrahydro-2H-pyran-2-yl)methyl)-2,7-diazaspiro[3.5]nonan-2-yl)pyrimidin-5-yl)oxy)-5-fluoro-N-((1r,3r)-3-hydroxycyclobutyl)-N-isopropylbenzamide]
- EC50: < 50 nM
- Ki: < 1 nM

SMILES: CCS(=O)(=O)N[C@@H]1CC[C@@H](CN2CCC3(CC2)CN(c2ncncc2Oc2ccc(F)cc2C(=O)N(c2ccccc2)C(C)C)C3)OC1 [Compound 260, 2-((4-(7-(((2S,5R)-5-(Ethylsulfonamido)tetrahydro-2H-pyran-2-yl)methyl)-2,7-diazaspiro[3.5]nonan-2-yl)pyrimidin-5-yl)oxy)-5-fluoro-N-isopropyl-N-phenylbenzamide]
- EC50: < 50 nM

SMILES: CCS(=O)(=O)N[C@@H]1CC[C@@H](CN2CCC3(CC2)CN(c2ncncc2Oc2ccc(F)cc2C(=O)N(c2ccccc2)c2ccccc2)C3)OC1 [Compound 261]
- EC50: < 50 nM

From patent US11919901B2 (Syndax Pharmaceuticals, Inc., priority 2021, dated 2024)
